For experiment [1], the system named is Mycosphaerella graminicola; Anamorph: Septoria tritici. The experiment can be described thus: Leaf Blotch of Wheat (SEPTTR) disease control. Conditions: for pest or weed control at 100 ppm / pest or weed control at 121.5 g/ha: Zymoseptoria tritici; for pest or weed control at 121.5 g/ha: rate 121.5 g/H. The format is in vivo. The method, then:
(§1) Technical grades of materials were dissolved in acetone, which were then mixed with nine volumes of water containing 110 ppm Triton X-100. The fungicide solutions were applied onto wheat seedlings using an automated booth sprayer to run-off. All sprayed plants were allowed to air dry prior to further handling. All fungicides were evaluated using the aforementioned method for their activity vs. all target diseases. Wheat leaf blotch and brown rust activity were also evaluated using track spray applications, in which case the fungicides were formulated as EC formulations, containing 0.1% Trycol 5941 in the spray solutions. Wheat plants (variety Yuma) were grown from seed in a greenhouse in 50% mineral soil/50% soil-less Metro mix until the first leaf was fully emerged, with 7-10 seedlings per pot. These plants were inoculated with an aqueous spore suspension of Septoria tritici either prior to or after fungicide treatments. After inoculation the plants were kept in 100% relative humidity (one day in a dark dew chamber followed by two to three days in a lighted dew chamber at 20° C.) to permit spores to germinate and infect the leaf. The plants were then transferred to a greenhouse set at 20° C. for disease to develop. When disease symptoms were fully expressed on the 1st leaves of untreated plants, infection levels were assessed on a scale of 0 to 100 percent disease severity. Percent disease control was calculated using the ratio of disease severity on treated plants relative to untreated plants.

The subject of experiment [2] is Puccinia triticina; Synonym: Puccinia recondite f. Sp. Tritici. As to the kind of experiment: Wheat Brown Rust (PUCCRT) disease control. The format is in vivo. The following applies: Puccinia triticina, topical. The method, then: as §1, with “plants. Wheat plants (variety Yuma) were grown from seed in a greenhouse in 50% mineral soil/50% soil-less Metro mix until the first leaf was fully emerged, with 7-10 seedlings per pot. These plants were inoculated with an aqueous spore suspension of Puccinia triticina either prior to or after fungicide treatments. After inoculation the plants were kept in a dark dew room at 22° C. with 100% relative humidity overnight to permit spores to germinate and infect the leaf. The plants were then transferred to a greenhouse set at 24° C. for disease to develop. Fungicide formulation, application and disease assessment followed the procedures as described in the Example A.” for “plants.”

Setting [3] is: 24 h, 1 Day Protectant, rate 100 ppm, read-out: SEPTTR 1 DP disease control.
Setting [4] is: 72 h, 3 Day Curative, rate 100 ppm, read-out: SEPTTR 3 DC disease control.
The mark [5] stands for this setting: 24 h, 1 Day Protectant, rate 100 ppm, read-out: PUCCRT 1 DP disease control.
The mark [6] stands for this setting: 72 h, 3 Day Curative, rate 100 ppm, read-out: PUCCRT 3 DC disease control.

Where two headings read alike, the source gives them in different places.

Turning to `COc1ccnc(C(=O)N[C@H]2CCC[C@H](CCC(C)C)[C@@H](Oc3ccccc3)[C@H](C)OC2=O)c1O` [Compound F1], the pest or weed control at 100 ppm in experiment [1] (setting [3]) lay in the range of 80 to 100%; in experiment [1] (setting [4]), 80 to 100%; in experiment [2] (setting [5]) it was 80 to 100%; in experiment [2] (setting [6]), 0 to 80%.

As for `COc1ccnc(C(=O)N[C@H]2CCC[C@H](CCC(C)C)[C@@H](OCC(C)C)[C@H](C)OC2=O)c1O` [Compound F2], the pest or weed control at 100 ppm in experiment [1] (setting [3]) lay in the range of 80 to 100%; in experiment [1] (setting [4]) it was 80 to 100%; in experiment [2] (setting [5]), 80 to 100%; in experiment [2] (setting [6]) it was 0 to 80%.

In the case of `COc1ccnc(C(=O)N[C@H]2CCC[C@H](CCC(C)C)[C@@H](OCC3CC3)[C@H](C)OC2=O)c1O` [Compound F3], the pest or weed control at 100 ppm in experiment [1] (setting [3]), in experiment [1] (setting [4]), in experiment [2] (setting [5]) and in experiment [2] (setting [6]) was 80 to 100% each time.

`CCCO[C@@H]1[C@@H](CCC(C)C)CCC[C@H](NC(=O)c2nccc(OC)c2O)C(=O)O[C@H]1C` [Compound F4]: the pest or weed control at 100 ppm in experiment [1] (setting [3]), in experiment [1] (setting [4]), in experiment [2] (setting [5]) and in experiment [2] (setting [6]) was 80 to 100% each time.

Consider `COc1ccnc(C(=O)N[C@H]2CCC[C@H](CCC(C)C)[C@@H](OCCCC(F)(F)F)[C@H](C)OC2=O)c1O` [Compound F5], for which the pest or weed control at 100 ppm was in the range of 80 to 100% in experiment [1] (setting [3]), 80 to 100% in experiment [1] (setting [4]), 80 to 100% in experiment [2] (setting [5]) and 0 to 80% in experiment [2] (setting [6]).

As for `COc1ccnc(C(=O)N[C@H]2CCC[C@H](CCC(C)C)[C@@H](OC3CCCC3)[C@H](C)OC2=O)c1O` [Compound F6], the pest or weed control at 100 ppm in experiment [1] (setting [3]), in experiment [1] (setting [4]), in experiment [2] (setting [5]) and in experiment [2] (setting [6]) was 80 to 100% each time.

Take `COc1ccnc(C(=O)N[C@H]2CCC[C@H](CCC(C)C)[C@@H](OC)[C@H](C)OC2=O)c1O` [Compound F7]: the pest or weed control at 100 ppm in experiment [1] (setting [3]) was in the range of 80 to 100%; in experiment [1] (setting [4]), 80 to 100%; in experiment [2] (setting [5]) it was 80 to 100%; in experiment [2] (setting [6]), 0 to 80%.

With `COc1ccnc(C(=O)N[C@H]2CCC[C@H](CCC(C)C)[C@@H](OC(=O)C3CCCC3)[C@H](C)OC2=O)c1O` [Compound F8], the pest or weed control at 100 ppm in experiment [1] (setting [3]), in experiment [1] (setting [4]), in experiment [2] (setting [5]) and in experiment [2] (setting [6]) was 80 to 100% throughout.

Consider `COc1ccnc(C(=O)N[C@H]2CCC[C@H](CC3CCCCC3)[C@@H](OCC3CC3)[C@H](C)OC2=O)c1O` [Compound F9, N-((3S,7R,8R,9S)-7-(cyclohexylmethyl)-8-(cyclopropylmethoxy)-9-methyl-2-oxooxonan-3-yl)-3-hydroxy-4-methoxypicolinamide], for which the pest or weed control at 100 ppm in experiment [1] (setting [3]), in experiment [1] (setting [4]), in experiment [2] (setting [5]) and in experiment [2] (setting [6]) was 80 to 100% each time.

Consider `COc1ccnc(C(=O)N[C@H]2CCC[C@H](Cc3ccc(C)cc3)[C@@H](OCCCC(F)(F)F)[C@H](C)OC2=O)c1O` [Compound F10], for which the “SEPTTR 3 DC disease control” value in experiment [1] (3 Day Curative, rate 100 ppm) was “A (80-100)”. In addition, the pest or weed control at 100 ppm in experiment [1] (setting [3]), in experiment [2] (setting [5]) and in experiment [2] (setting [6]) was 80 to 100% in each case. In addition, the pest or weed control at 121.5 g/ha in experiment [1] (24 h, 1 Day Protectant, read-out: SEPTTR 1 DP disease control) is 80 to 100%; in experiment [1] (72 h, 3 Day Curative, read-out: SEPTTR 3 DC disease control), 80 to 100%; in experiment [2] (24 h, 1 Day Protectant, rate 121.5 g/H, read-out: PUCCRT 1 DP disease control), 80 to 100%; in experiment [2] (72 h, 3 Day Curative, rate 121.5 g/H, read-out: PUCCRT 3 DC disease control), 0 to 80%.

With `COc1ccnc(C(=O)N[C@H]2CCC[C@H](Cc3ccc(F)cc3)[C@@H](Oc3ccccc3)[C@H](C)OC2=O)c1O` [Compound F11], the pest or weed control at 100 ppm was in the range of 80 to 100% in experiment [1] (setting [3]), 80 to 100% in experiment [1] (setting [4]), 80 to 100% in experiment [2] (setting [5]) and 0 to 80% in experiment [2] (setting [6]).

For `C=CCO[C@@H]1[C@@H](Cc2ccc(F)cc2)CCC[C@H](NC(=O)c2nccc(OC)c2O)C(=O)O[C@H]1C` [Compound F12], the pest or weed control at 100 ppm was in the range of 80 to 100% in experiment [1] (setting [3]), 80 to 100% in experiment [1] (setting [4]), 0 to 80% in experiment [2] (setting [5]) and 80 to 100% in experiment [2] (setting [6]).

With `CCCO[C@@H]1[C@@H](Cc2ccc(F)cc2)CCC[C@H](NC(=O)c2nccc(OC)c2O)C(=O)O[C@H]1C` [Compound F13], the values for the pest or weed control at 100 ppm in experiment [1] (setting [3]), in experiment [1] (setting [4]) and in experiment [2] (setting [6]) were 80 to 100%, 80 to 100% and 0 to 80%, respectively.

Consider `COc1ccnc(C(=O)N[C@H]2CCC[C@H](Cc3ccc(F)cc3)[C@@H](OCC(C)C)[C@H](C)OC2=O)c1O` [Compound F14], for which the pest or weed control at 100 ppm in experiment [1] (setting [3]), in experiment [1] (setting [4]), in experiment [2] (setting [5]) and in experiment [2] (setting [6]) was 80 to 100% each time.

On to `COc1ccnc(C(=O)N[C@H]2CCC[C@H](Cc3ccc(F)cc3)[C@@H](OCC(F)F)[C@H](C)OC2=O)c1O` [Compound F15], for which the pest or weed control at 100 ppm in experiment [1] (setting [3]), in experiment [1] (setting [4]), in experiment [2] (setting [5]) and in experiment [2] (setting [6]) was 80 to 100% each time.

Consider `COc1ccnc(C(=O)N[C@H]2CCC[C@H](Cc3ccc(F)cc3)[C@@H](OC(=O)C3CCCC3)[C@H](C)OC2=O)c1O` [Compound F16], for which the pest or weed control at 100 ppm is 80 to 100% in experiment [1] (setting [3]), 0 to 80% in experiment [1] (setting [4]), 80 to 100% in experiment [2] (setting [5]) and 0 to 80% in experiment [2] (setting [6]).

`COc1ccnc(C(=O)N[C@H]2CCC[C@H](Cc3ccc(F)cc3)[C@@H](OC(=O)C(C)C)[C@H](C)OC2=O)c1O` [Compound F17]: the pest or weed control at 100 ppm in experiment [1] (setting [3]) fell in the range of 80 to 100%; in experiment [1] (setting [4]), 80 to 100%; in experiment [2] (setting [5]) it was 80 to 100%; in experiment [2] (setting [6]), 0 to 80%.

Consider `COc1ccnc(C(=O)N[C@H]2CCC[C@H](Cc3ccccc3)[C@@H](OCC(C)C)[C@H](C)OC2=O)c1O` [Compound F18], for which the pest or weed control at 100 ppm lay in the range of 80 to 100% in experiment [1] (setting [3]), 80 to 100% in experiment [1] (setting [4]), 80 to 100% in experiment [2] (setting [5]) and 0 to 80% in experiment [2] (setting [6]).

As for `COc1ccnc(C(=O)N[C@H]2CCC[C@@H]3CCO[C@H]3[C@H](C)OC2=O)c1O` [Compound F58], the pest or weed control at 100 ppm in experiment [2] (setting [5]) and in experiment [2] (setting [6]) was 80 to 100% each time.

Turning to `CCOCC(=O)OCOc1c(OC)ccnc1C(=O)N[C@H]1CCC[C@@H]2CCO[C@H]2[C@H](C)OC1=O` [Compound F192], the pest or weed control at 100 ppm in experiment [2] (24 h, Wheat Brown Rust, 1 Day Protectant, rate 100 ppm (high volume application), read-out: Disease control PUCCRT 1 DP) is 80 to 100%; in experiment [2] (72 h, Wheat Brown Rust, 3 Day Curative, rate 100 ppm (high volume application), read-out: Disease control PUCCRT 3 DC), 80 to 100%. The pest or weed control at 121.5 g/ha was 80 to 100% in experiment [2] (24 h, Wheat Brown Rust, 1 Day Protectant, rate 121.5 g/H (low volume application), read-out: Disease control PUCCRT 1 DP) and 80 to 100% in experiment [2] (72 h, Wheat Brown Rust, 3 Day Curative, rate 121.5 g/H (low volume application), read-out: Disease control PUCCRT 3 DC).

For the origin of these results see patent US9265253B2, “Use of macrocyclic picolinamides as fungicides” (DOW AGROSCIENCES LLC, priority 2013, dated 2016).
